Earlier results, collected in patent publication US20050153948A1, “Methods and formulations for the treatment of medical conditions related to elevated dihydrotestosterone” (Zomanex, LLC, priority 2003, published 2005).
pKi: −log10 of the molar value.

How the values were obtained:
[1] = aqueous sterol/lecithin formulation, deuterated compounds, humans
[2] = system: prostate (benign prostatic hyperplasia); conditions: long-term use; reduced from about 10 percent
[3] = system: circulating serum DHT; conditions: two clinical trials
[4] = system: prostate cancer; conditions: 5 mg per day, seven-year trial; placebo group 24.4 percent
[5] = biological target: T1, Type I human reductase (Homo sapiens, UniProt P18405); conditions: Type I human 5α-reductase; read-out: K1 for Type I human reductase
T1 sequence (P18405 1-259): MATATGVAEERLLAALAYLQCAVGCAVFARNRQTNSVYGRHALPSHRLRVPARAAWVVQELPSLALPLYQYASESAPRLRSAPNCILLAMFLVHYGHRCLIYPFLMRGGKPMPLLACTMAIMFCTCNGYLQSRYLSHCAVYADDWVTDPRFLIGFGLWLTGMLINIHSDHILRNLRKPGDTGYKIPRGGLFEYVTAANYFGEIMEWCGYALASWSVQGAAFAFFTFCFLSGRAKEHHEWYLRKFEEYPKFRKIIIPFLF

[6] = biological target: T2, type II enzyme (5α-reductase) (Homo sapiens, UniProt P31213); conditions: type II 5α-reductase; read-out: K1 for type II enzyme
T2 sequence (P31213 1-254): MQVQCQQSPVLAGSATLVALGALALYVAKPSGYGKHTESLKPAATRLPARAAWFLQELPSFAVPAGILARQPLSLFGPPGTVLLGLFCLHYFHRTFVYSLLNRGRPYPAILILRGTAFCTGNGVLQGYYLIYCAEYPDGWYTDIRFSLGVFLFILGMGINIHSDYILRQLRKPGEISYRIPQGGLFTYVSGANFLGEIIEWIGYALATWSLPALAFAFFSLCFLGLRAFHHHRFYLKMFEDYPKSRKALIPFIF

| SMILES | absorption relative to reduced derivatives sitostanol and campestanol [1] | need for surgical intervention for BPH [2] [%] | reduction in circulating serum DHT [3] [%] | cumulative incidence of cancer [4] [%] | pKi [5] | pKi [6] |
| --- | --- | --- | --- | --- | --- | --- |
| CC(C)[C@H](C)CC[C@@H](C)[C@H]1CC[C@H]2[C@@H]3CC=C4C[C@@H](O)CC[C@]4(C)[C@H]3CC[C@]12C [campesterol] | about ten |  |  |  |  |  |
| CC(C)(C)NC(=O)[C@H]1CC[C@H]2[C@@H]3CC[C@H]4NC(=O)C=C[C@]4(C)[C@H]3CC[C@]12C [finasteride] |  | 5 | 65 | 18.4 | 6.49 | 7.92 |
| CC[C@H](CC[C@@H](C)[C@H]1CC[C@H]2[C@@H]3CC=C4C[C@@H](O)CC[C@]4(C)[C@H]3CC[C@]12C)C(C)C [sitosterol] | about ten |  |  |  |  |  |
